From PubChem BioAssay (NCI)
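Assay format: 96-well plates, 48-hour exposure. GI50 is the concentration that inhibits growth by half. TGI: total growth inhibition.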

Legend:
Assay in all cases: NCI-60 cell line screen, 48 h
NCI-H460 lung = test system: NCI-H460 lung
HT29 colon = test system: HT29 colon
UO-31 renal = test system: UO-31 renal
EKVX NSCLC = test system: EKVX NSCLC
CAKI-1 renal = test system: CAKI-1 renal
SN12C renal = test system: SN12C renal
UACC-62 melanoma = test system: UACC-62 melanoma
SW-620 colon = test system: SW-620 colon
SK-MEL-2 melanoma = test system: SK-MEL-2 melanoma
K-562 leukemia = test system: K-562 leukemia
TK-10 renal = test system: TK-10 renal
U251 CNS = test system: U251 CNS
ACHN renal = test system: ACHN renal
HCT-15 colon = test system: HCT-15 colon
BT-549 breast = test system: BT-549 breast
SK-MEL-5 melanoma = test system: SK-MEL-5 melanoma
OVCAR-8 ovarian = test system: OVCAR-8 ovarian
HL-60(TB) leukemia = test system: HL-60(TB) leukemia
SF-268 CNS = test system: SF-268 CNS
HCT-116 colon = test system: HCT-116 colon
CCRF-CEM leukemia = test system: CCRF-CEM leukemia
COLO 205 colon = test system: COLO 205 colon
SF-295 CNS = test system: SF-295 CNS
LOX IMVI melanoma = test system: LOX IMVI melanoma
NCI/ADR-RES ovarian = test system: NCI/ADR-RES ovarian
MOLT-4 leukemia = test system: MOLT-4 leukemia
T-47D breast = test system: T-47D breast
SK-MEL-28 melanoma = test system: SK-MEL-28 melanoma
SF-539 CNS = test system: SF-539 CNS
HOP-92 NSCLC = test system: HOP-92 NSCLC
UACC-257 melanoma = test system: UACC-257 melanoma
OVCAR-4 ovarian = test system: OVCAR-4 ovarian
A498 renal = test system: A498 renal
DU-145 prostate = test system: DU-145 prostate
OVCAR-5 ovarian = test system: OVCAR-5 ovarian
786-0 renal = test system: 786-0 renal
MDA-MB-435 = test system: MDA-MB-435
SR leukemia = test system: SR leukemia
NCI-H23 lung = test system: NCI-H23 lung
IGROV1 ovarian = test system: IGROV1 ovarian
HOP-62 NSCLC = test system: HOP-62 NSCLC
RPMI-8226 leukemia = test system: RPMI-8226 leukemia
MDA-MB-231 breast = test system: MDA-MB-231 breast
M14 melanoma = test system: M14 melanoma
NCI-H226 lung = test system: NCI-H226 lung
KM12 colon = test system: KM12 colon
NCI-H522 lung = test system: NCI-H522 lung
PC-3 prostate = test system: PC-3 prostate
SK-OV-3 ovarian = test system: SK-OV-3 ovarian
SNB-75 CNS = test system: SNB-75 CNS
HS 578T breast = test system: HS 578T breast
HCC-2998 colon = test system: HCC-2998 colon
SNB-19 CNS = test system: SNB-19 CNS
MCF7 breast = test system: MCF7 breast
OVCAR-3 ovarian = test system: OVCAR-3 ovarian
MALME-3M melanoma = test system: MALME-3M melanoma
A549 NSCLC = test system: A549 NSCLC

SMILES: Oc1cccc(-c2nc(-c3n[nH]c(=S)n3-c3ccccc3)cc3c2[nH]c2ccccc23)c1
- GI50 (NCI-H460 lung): 3.1 µM
- TGI (NCI-H460 lung): 9.5 µM
- GI50 (HT29 colon): 2.55 µM
- TGI (HT29 colon): 6.18 µM
- GI50 (UO-31 renal): 2.09 µM
- TGI (UO-31 renal): 11.7 µM
- GI50 (EKVX NSCLC): 4 µM
- TGI (EKVX NSCLC): 23.4 µM
- GI50 (CAKI-1 renal): 2.81 µM
- TGI (CAKI-1 renal): 11.9 µM
- GI50 (SN12C renal): 4.03 µM
- TGI (SN12C renal): 15.5 µM
- GI50 (UACC-62 melanoma): 2.4 µM
- TGI (UACC-62 melanoma): 8.77 µM
- GI50 (SW-620 colon): 3.63 µM
- TGI (SW-620 colon): 11.9 µM
- GI50 (SK-MEL-2 melanoma): 1.88 µM
- TGI (SK-MEL-2 melanoma): 6.08 µM
- GI50 (K-562 leukemia): 3.16 µM
- TGI (K-562 leukemia): 21.6 µM
- GI50 (TK-10 renal): 4.08 µM
- TGI (TK-10 renal): 16.3 µM
- GI50 (U251 CNS): 2.98 µM
- TGI (U251 CNS): 11 µM
- GI50 (ACHN renal): 3.95 µM
- TGI (ACHN renal): 14.6 µM
- GI50 (HCT-15 colon): 2.88 µM
- TGI (HCT-15 colon): 10.9 µM
- GI50 (BT-549 breast): 2.67 µM
- TGI (BT-549 breast): 6.8 µM
- GI50 (SK-MEL-5 melanoma): 3.15 µM
- TGI (SK-MEL-5 melanoma): 11 µM
- GI50 (OVCAR-8 ovarian): 3.09 µM
- TGI (OVCAR-8 ovarian): 8.83 µM
- GI50 (HL-60(TB) leukemia): 3.38 µM
- TGI (HL-60(TB) leukemia): 8.98 µM
- GI50 (SF-268 CNS): 3.56 µM
- TGI (SF-268 CNS): 14.7 µM
- GI50 (HCT-116 colon): 3.28 µM
- TGI (HCT-116 colon): 9.82 µM
- GI50 (CCRF-CEM leukemia): 3.85 µM
- TGI (CCRF-CEM leukemia): 18.7 µM
- GI50 (COLO 205 colon): 2.45 µM
- TGI (COLO 205 colon): 7.22 µM
- GI50 (SF-295 CNS): 2.16 µM
- TGI (SF-295 CNS): 5.75 µM
- GI50 (LOX IMVI melanoma): 1.8 µM
- TGI (LOX IMVI melanoma): 3.83 µM
- GI50 (NCI/ADR-RES ovarian): 13.2 µM
- TGI (NCI/ADR-RES ovarian): 69.7 µM
- GI50 (MOLT-4 leukemia): 3.78 µM
- TGI (MOLT-4 leukemia): 14 µM
- GI50 (T-47D breast): 2.14 µM
- TGI (T-47D breast): 8.18 µM
- GI50 (SK-MEL-28 melanoma): 1.81 µM
- TGI (SK-MEL-28 melanoma): 7.28 µM
- GI50 (SF-539 CNS): 1.8 µM
- TGI (SF-539 CNS): 3.96 µM
- GI50 (HOP-92 NSCLC): 4.31 µM
- TGI (HOP-92 NSCLC): 18.1 µM
- GI50 (UACC-257 melanoma): 3.22 µM
- TGI (UACC-257 melanoma): 9.88 µM
- GI50 (OVCAR-4 ovarian): 3.79 µM
- TGI (OVCAR-4 ovarian): 17.3 µM
- GI50 (A498 renal): 2.15 µM
- TGI (A498 renal): 5.8 µM
- GI50 (DU-145 prostate): 2.57 µM
- TGI (DU-145 prostate): 7.02 µM
- GI50 (OVCAR-5 ovarian): 4.38 µM
- TGI (OVCAR-5 ovarian): 15.7 µM
- GI50 (786-0 renal): 3.19 µM
- TGI (786-0 renal): 11 µM
- GI50 (MDA-MB-435): 1.26 µM
- TGI (MDA-MB-435): 4.5 µM
- GI50 (SR leukemia): 3.07 µM
- TGI (SR leukemia): > 100 µM
- GI50 (NCI-H23 lung): 3.97 µM
- TGI (NCI-H23 lung): 19.7 µM
- GI50 (IGROV1 ovarian): 2.29 µM
- TGI (IGROV1 ovarian): 11.2 µM
- GI50 (HOP-62 NSCLC): 2.24 µM
- TGI (HOP-62 NSCLC): 7.96 µM
- GI50 (RPMI-8226 leukemia): 2.69 µM
- TGI (RPMI-8226 leukemia): 7.86 µM
- GI50 (MDA-MB-231 breast): 3.19 µM
- TGI (MDA-MB-231 breast): 13 µM
- GI50 (M14 melanoma): 2.72 µM
- TGI (M14 melanoma): 10.3 µM
- GI50 (NCI-H226 lung): 3.92 µM
- TGI (NCI-H226 lung): 18.6 µM
- GI50 (KM12 colon): 3.15 µM
- TGI (KM12 colon): 11.7 µM
- GI50 (NCI-H522 lung): 1.8 µM
- TGI (NCI-H522 lung): 4.98 µM
- GI50 (PC-3 prostate): 2.63 µM
- TGI (PC-3 prostate): 10.9 µM
- GI50 (SK-OV-3 ovarian): 3.02 µM
- TGI (SK-OV-3 ovarian): 8.72 µM
- GI50 (SNB-75 CNS): 1.72 µM
- TGI (SNB-75 CNS): 5.89 µM
- GI50 (HS 578T breast): 3.43 µM
- TGI (HS 578T breast): 24.6 µM
- GI50 (HCC-2998 colon): 2.17 µM
- TGI (HCC-2998 colon): 4.53 µM
- GI50 (SNB-19 CNS): 3.11 µM
- TGI (SNB-19 CNS): 11.4 µM
- GI50 (MCF7 breast): 3.37 µM
- TGI (MCF7 breast): 13.6 µM
- GI50 (OVCAR-3 ovarian): 2.18 µM
- TGI (OVCAR-3 ovarian): 5.73 µM
- GI50 (MALME-3M melanoma): 4.05 µM
- TGI (MALME-3M melanoma): 17.4 µM
- GI50 (A549 NSCLC): 2.89 µM
- TGI (A549 NSCLC): 11.1 µM
